Here are results for two molecules from publication PMC11448502, “Cryo-EM structures of the human P2X1 receptor reveal subtype-specific architecture and antagonism by supramolecular ligand-binding” (Nature Communications, 2024).

Changes are numbered by the printed parent chain. pEC50: −log10 of the molar value. Where “and” joins values, the source holds several entries; their conditions need not be identical. Identical values can stand only once. Entries after “also recorded” stand apart in the source; their conditions may differ.

The target of one assay is T1, hP2X1 R292A (Homo sapiens, UniProt P51575, R292A).
T1 construct: hP2X1 mRNA that was made from linearized full-length wild-type or mutant pcDNA 3.1x; expressed in transfected cells; host or cells: Xenopus laevis oocytes (mRNA injection)
T1 sequence (P51575 1-399 R292A): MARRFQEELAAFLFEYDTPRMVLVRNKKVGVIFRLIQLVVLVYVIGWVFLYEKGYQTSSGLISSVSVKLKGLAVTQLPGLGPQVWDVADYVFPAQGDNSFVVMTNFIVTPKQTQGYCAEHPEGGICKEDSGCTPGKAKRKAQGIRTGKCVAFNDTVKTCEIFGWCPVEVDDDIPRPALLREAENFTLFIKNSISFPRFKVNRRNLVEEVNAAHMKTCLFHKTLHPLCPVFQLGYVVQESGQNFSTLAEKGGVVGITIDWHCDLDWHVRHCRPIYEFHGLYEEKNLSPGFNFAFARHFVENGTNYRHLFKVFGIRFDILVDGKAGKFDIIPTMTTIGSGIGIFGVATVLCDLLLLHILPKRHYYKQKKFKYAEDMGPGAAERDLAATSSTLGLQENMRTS
Kind of assay: ATP dose response (EC50), TEVC in oocytes. Format: cell-based. On the procedure:
(§1) Oocytes were purchased defolliculated from Ecocyte Bioscience in Barth’s Solution (88 mM NaCl, 1 mM KCl, 0.82 mM MgSO4, 0.33 mM Ca(NO3)2, 0.41 mM CaCl2, 2.4 mM NaHCO3, 5 mM Tris-HCl) supplemented with penicillin (100 U/mL) and streptomycin (100 µg/mL). Xenopus laevis oocytes were then injected with 50 nL of 100 ng/μL hP2X1 mRNA that was made from linearized full-length wild-type or mutant pcDNA 3.1x according to the protocol provided in the mMessage mMachine kit (Invitrogen). Injected oocytes were allowed to express for ~20 hours at 18 °C before recording was performed.
(§2) Data acquisition was performed using the Oocyte Clamp OC-725C amplifier and pClamp 8.2 software. Buffers were applied using a gravity fed RSC-200 Rapid Solution Changer that flows at ~5 mL/min. All experiments use Sutter filamented glass 10 cm in length with an inner diameter of 0.69 mm and an outer diameter of 1.2 mm to impale oocytes and clamp the holding voltage at −60 mV. Experiments were recorded in buffer containing 10 mM HEPES (pH 7.4), 140 mM NaCl, 5 mM KCl, 2 mM CaCl2, 2 mM MgCl2, and 10 mM glucose.
(§3) Excitatory responses to a dilution series of ATP between 6.4 nM and 10 mM were examined across the different mutants. Each evoked response was normalized to an initial ATP-induced current evoked by the following concentrations: 500 µM ATP for R292A, 2 mM ATP for K309A, and 100 µM ATP for the remaining mutants and wild-type receptor. The data was fit in Prism 9 using the nonlinear regression named “EC50, x is concentration” to afford EC50 values. This value was then averaged amongst each singular condition and reported as an average plus or minus the standard deviation.

A further assay has as its target T2, hP2X1 K309A (Homo sapiens, UniProt P51575, K309A).
T2 construct: hP2X1 mRNA that was made from linearized full-length wild-type or mutant pcDNA 3.1x; expressed in transfected cells; host or cells: Xenopus laevis oocytes (mRNA injection)
T2 sequence (P51575 1-399 K309A): T1 sequence (P51575 1-399 R292A) with A292R, K309A
Kind of assay: ATP dose response (EC50), TEVC in oocytes. The class given is cell-based. On the procedure: as §1, §2, §3

The target in the next assay is T3, hP2X1 R139A (Homo sapiens, UniProt P51575, R139A).
T3 construct: hP2X1 mRNA that was made from linearized full-length wild-type or mutant pcDNA 3.1x; expressed in transfected cells; host or cells: Xenopus laevis oocytes (mRNA injection)
T3 sequence (P51575 1-399 R139A): T1 sequence (P51575 1-399 R292A) with R139A, A292R
Kind of assay: ATP dose response (EC50), TEVC in oocytes. The class given is cell-based. On the procedure:
as §1, §2, §3

The next assay concerns the target T4, hP2X1 K140A (Homo sapiens, UniProt P51575, K140A).
T4 construct: hP2X1 mRNA that was made from linearized full-length wild-type or mutant pcDNA 3.1x; expressed in transfected cells; host or cells: Xenopus laevis oocytes (mRNA injection)
T4 sequence (P51575 1-399 K140A): T1 sequence (P51575 1-399 R292A) with K140A, A292R
Kind of assay: ATP dose response (EC50), TEVC in oocytes. The class given is cell-based. The settings on record: for Normalized Current: hP2X1 K140A. On the procedure:
as §1, §2, §3

For another assay, the system named is P2X3. Also on record: method as in doi: 10.1111/bph.15299. The following applies: reviewer comment, ref doi: 10.1111/bph.15299, read-out: EC50 of ATP; cited from earlier work.
The test system of a further assay is platelets. The following applies: ex vivo; cited from earlier work.
In a further assay the test system is thrombosis. The following applies: in vivo; cited from earlier work.

The term pEC50 denotes the EC50 on a negative log10 scale, so that one unit is a factor of ten.

As for `Nc1ncnc2c1ncn2[C@@H]1O[C@H](COP(=O)(O)OP(=O)(O)OP(=O)(O)O)[C@@H](O)[C@H]1O` [ATP], the entries for the “EC50 of ATP” value on hP2X1 R292A (TEVC), at hP2X1 K309A (TEVC) and at hP2X1 R139A (TEVC) were “impacted”, “impacted” and “no effect; also recorded: without affecting”, respectively. Moreover, the “Normalized Current” value on hP2X1 R292A ([ATP] 1.000E-04 M) was 0.772 and 0.7521 and 0.7236; on hP2X1 R292A ([ATP] 1.600E-07 M), 0.000000; at hP2X1 R292A ([ATP] 2.000E-05 M) it was 0.2643 and 0.1768 and 0.1722; on hP2X1 R292A ([ATP] 2.500E-03 M) it was 1.04 and 1.022 and 0.9381; at hP2X1 R292A ([ATP] 5.000E-04 M) it was 0.9697 and 0.8815 and 0.878; on hP2X1 K309A ([ATP] 1.000E-02 M), 1.006 and 0.9573 and 1.036. For the same molecule, the “Normalized Current” value at hP2X1 K309A ([ATP] 2.000E-03 M) is 0.8423 and 0.8039 and 0.8072; at hP2X1 K309A ([ATP] 3.200E-06 M) it was 0.000000; on hP2X1 K309A ([ATP] 4.000E-04 M), 0.3324 and 0.3289 and 0.2846; at hP2X1 R139A ([ATP] 1.000E-04 M), 0.9464 and 0.9017 and 0.9178; on hP2X1 R139A ([ATP] 2.000E-05 M), 0.8825 and 0.6805 and 0.736; at hP2X1 R139A ([ATP] 4.000E-06 M), 0.6603 and 0.5057 and 0.6077. Further, the “Normalized Current” value at hP2X1 R139A ([ATP] 5.000E-04 M) is 1.062 and 0.93 and 1.008; on hP2X1 K140A ([ATP] 1.000E-04 M) it was 1.047 and 0.9489 and 0.9169; at hP2X1 K140A ([ATP] 4.000E-06 M), 0.661 and 0.6317 and 0.5508; at hP2X1 K140A ([ATP] 5.000E-04 M), 1.045 and 0.9875 and 0.9677. Moreover, the “apparent affinity (EC50) of ATP, effect of mutation” value on hP2X1 K140A (hP2X1 K140A vs wild-type, TEVC) was “do not appear to significantly change; also recorded: no major effect; also recorded: did not impact”. Also, in the assay on P2X3, the negative logarithm of the EC50 (pEC50) is 6.00 to 6.30.

Take `O=C(Nc1cc(C(=O)Nc2ccc(S(=O)(=O)O)cc2S(=O)(=O)O)cc(C(=O)Nc2ccc(S(=O)(=O)O)cc2S(=O)(=O)O)c1)Nc1cc(C(=O)Nc2ccc(S(=O)(=O)O)cc2S(=O)(=O)O)cc(C(=O)Nc2ccc(S(=O)(=O)O)cc2S(=O)(=O)O)c1` [NF449, 4,4’,4”,4’’’-(carbonylbis(imino-5,1,3-benzenetriylbis(carbonylimino)))tetrakis-benzene-1,3-disulfonic acid]: the “effect on platelet activation” value with platelets is reported as “inhibitory effect”. In addition, the effect on thrombosis entry in the assay with thrombosis is “inhibitory effect”.
